According to patent US12150995B2, “IRAK degraders and uses thereof” (Kymera Therapeutics, Inc., priority 2020, dated 2024):

Target: T1, IRAK4 (Homo sapiens, UniProt Q9NWZ3)
T1 construct: endogenous in cells; host or cells: OCI-LY10
T1 sequence (Q9NWZ3 1-460): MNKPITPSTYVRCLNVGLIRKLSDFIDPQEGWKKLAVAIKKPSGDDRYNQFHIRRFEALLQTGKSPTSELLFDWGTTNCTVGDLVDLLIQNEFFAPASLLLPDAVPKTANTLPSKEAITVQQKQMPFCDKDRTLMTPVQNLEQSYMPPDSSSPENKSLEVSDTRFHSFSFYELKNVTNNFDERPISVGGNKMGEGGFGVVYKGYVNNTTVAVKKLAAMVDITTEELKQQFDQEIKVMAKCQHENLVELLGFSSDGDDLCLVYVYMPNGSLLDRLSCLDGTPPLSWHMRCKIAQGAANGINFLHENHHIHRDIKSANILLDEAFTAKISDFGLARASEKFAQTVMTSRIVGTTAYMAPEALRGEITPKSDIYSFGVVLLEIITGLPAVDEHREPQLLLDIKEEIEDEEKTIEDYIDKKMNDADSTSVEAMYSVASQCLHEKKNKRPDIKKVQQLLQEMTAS
Assay: IRAK4 MSD Degradation in OCI-LY10
Type: cell-based
Conditions: OCI-LY10 cells, Meso Scale Discovery, incubated 4 to 24 hours
Description: Degradation of IRAK4 in OCI-LY10 was quantitatively measured using Meso Scale Discovery technology. OCI-LY10 cells were seeded in 96-well plates (Corning 3799) with a density of 300,000 cells per well in 100 μL fresh media. Compounds were then added to the assay plates with a final top concentration of 1 to 10 μM in a 1:3 dilution series with total of 8 doses. The assay plates were then incubated for 4 to 24 hours at 37° C. under 5% CO2. The assay plates were then centrifuged for 5 minutes and the cell pellets were treated with 100 μL/well RIPA lysis buffer (Boston BioProducts BP-115D) with proteinase inhibitors. To prepare MSD assay plates (Meso Scale Discovery Catalog number L15XA-3), the plates were coated with 2 μg/mL capture antibody (mouse Anti-IRAK4 antibody [2H9], ab119942) in PBS, at 40 μL/well. The plates were then incubated overnight at 4° C., washed 3 times with 150 μL/well TBST buffer (Cell Signaling Technology, Catalog number 9997S) and blocked with 150 μL/well blocking buffer (Meso Scale Discovery Catalog number R93BA-4). Cell lysates were then added to MSD assay plates and the plates were incubated at room temperature for 1 hour. The plates were then washed 3 times with 150 μL/well TBST buffer and […] primary detection antibody (rabbit Anti-IRAK4 antibody [Y279], from Abcam. Catalog number ab32511, 1 μg/mL). The assay plates were then incubated at room temperature for 1 hour, washed 3 times with 150 μL/well TBST buffer and 254/well secondary detection antibody, SULFO-TAG anti-rabbit antibody were added (anti rabbit antibody from Meso Scale Discovery, Catalog number R32AB-1, 1 μg/mL). The assay plates were then incubated at room temperature for 1 hour, washed 3 times with 150 μL/well TBST buffer, and 150 μL/well MSD reading buffer (Meso Scale Discovery catalog number R92TC-2) was added. The plates were then analyzed by a MSD reader (Meso Scale Discovery, Model Quick Plex SQ 120). The data was then analyzed by software Prism 7.0 from GraphPad and the dose-depended IRAK4 degradation were fit using a three-parameter logistic equation to calculate DC50.
The letter codes for IRAK4 DC50 include: A (<0.01 μM); B (0.01-0.05 μM); C (0.05-0.1 μM); D (0.1-0.2 μM); and E (>0.2 μM).

| Compound | DC50 [nM] |
| --- | --- |
| COc1cc2nc([C@H]3CC[C@H](CN4CCN(c5cccc6c(N7CCC(=O)NC7=O)cncc56)CC4)CC3)sc2cc1NC(=O)c1cccc(C(F)(F)F)n1 [I-223] | 10 to 50 |
| Cc1cc2nn([C@H]3CC[C@H](CN4C[C@@H]5C[C@H]4CN5c4cccc5c4n(C)c(=O)n5C4CCC(=O)NC4=O)CC3)cc2cc1NC(=O)c1cccc(C(F)(F)F)n1 (some centres unmarked) [I-303] | < 10 |
| COc1cc2nn([C@H]3CC[C@H](CN4CCN(c5cccc6c(N7CCC(=O)NC7=O)ccnc56)CC4)CC3)cc2cc1NC(=O)c1cccc(C(F)(F)F)n1 [I-382] | < 10 |
| Cc1cc2nn([C@H]3CC[C@H](CN4CC5CC(C4)N5c4cccc5c4n(C)c(=O)n5C4CCC(=O)NC4=O)CC3)cc2cc1NC(=O)c1cccc(C(F)(F)F)n1 (some centres unmarked) [I-414] | 10 to 50 |
| COc1cc2nn([C@H]3CC[C@H](CN4CCC(c5cccc6c5n(C)c(=O)n6C5CCC(=O)NC5=O)CC4)CC3)cc2cc1NC(=O)c1cnc(OC)c(Cl)c1 (some centres unmarked) [I-193] | > 200 |
| CC(C)(O)c1cc2nc([C@H]3CC[C@H](C(=O)N4CCN(CCCNc5cccc6c5C(=O)N(C5CCC(=O)NC5=O)C6=O)CC4)CC3)sc2cc1NC(=O)c1cccc(C(F)(F)F)n1 (some centres unmarked) [I-493] | < 10 |
| Cn1c(=O)n(C2CCC(=O)NC2=O)c2ccc(C3CCN(C[C@H]4CC[C@H](n5cc6cc(NC(=O)c7cccc(C(F)(F)F)n7)ncc6n5)CC4)CC3)c(Cl)c21 (some centres unmarked) [I-178] | > 200 |
| COc1cc2nn([C@H]3CC[C@H](CN4CCC(c5cccc6c(N7CCC(=O)NC7=O)cncc56)CC4)CC3)cc2cc1NC(=O)c1cncc(C#N)c1 [I-121] | 10 to 50 |
| COc1cc2nn([C@H]3CC[C@H](CN4CCCN(c5cccc6c5n(C)c(=O)n6C5CCC(=O)NC5=O)CC4)CC3)cc2cc1NC(=O)c1cccc(C(F)(F)F)n1 (some centres unmarked) [I-255] | < 10 |
| CC(C)Nc1cc(-c2ccc3cc(C#N)cnn23)ncc1C(=O)N[C@H]1CC[C@H](CN2CCN(c3cccc4c(N5CCC(=O)NC5=O)cncc34)CC2)CC1 [I-373] | 10 to 50 |
| COc1cc2nn([C@H]3CC[C@H](CN4CCN(c5ccc6c(N7CCC(=O)NC7=O)cncc6c5OC)CC4)CC3)cc2cc1NC(=O)c1cccc(C(F)(F)F)n1 [I-376] | 10 to 50 |
| COc1cc2nc([C@H]3CC[C@H](CN(C)CCCCNc4cccc5c4C(=O)N(C4CCC(=O)NC4=O)C5=O)CC3)sc2cc1NC(=O)c1cncc(F)c1 (some centres unmarked) [I-479] | > 200 |
| COc1cc2nn(C3CCN(C[C@H]4CC[C@H](c5cccc6c5n(C)c(=O)n6C5CCC(=O)NC5=O)CC4)CC3)cc2cc1NC(=O)c1cccc(C(F)(F)F)n1 (some centres unmarked) [I-237] | 10 to 50 |
| CC(C)Nc1cc(-n2ccc3cc(C(F)(F)F)cnc32)ncc1C(=O)N[C@H]1CC[C@H](CN2CCC(c3cccc4c3n(C)c(=O)n4C3CCC(=O)NC3=O)CC2)CC1 (some centres unmarked) [I-368] | > 200 |
| CC(C)(N)c1cc2nn([C@H]3CC[C@H](CN4C5CCC4CN(c4cccc6c(N7CCC(=O)NC7=O)cncc46)C5)CC3)cc2cc1NC(=O)c1cccc(C(F)(F)F)n1 [I-227] | < 10 |
| Cn1c(=O)n(C2CCC(=O)NC2=O)c2cccc(C3CCN(C[C@H]4CC[C@H](N5Cc6cc(NC(=O)c7cccc(C(F)(F)F)n7)c(N7C[C@@H]8C[C@H]7CO8)cc6C5=O)CC4)CC3)c21 (some centres unmarked) [I-27] | < 10 |
| CN(C[C@H]1CC[C@H](n2cc3cc(NC(=O)c4cncc(C#N)c4)c(OC(F)(F)F)cc3n2)CC1)C1CCN(c2cccc3c2n(C)c(=O)n3C2CCC(=O)NC2=O)CC1 (some centres unmarked) [I-249] | > 200 |
| COc1cc2nn([C@H]3CC[C@H](CN(C)C4CCN(c5cccc6c5n(C)c(=O)n6C5CCC(=O)NC5=O)CC4)CC3)cc2cc1NC(=O)c1cncc(C(F)(F)F)c1 (some centres unmarked) [I-130] | < 10 |
| Cn1c(=O)n(C2CCC(=O)NC2=O)c2cccc(N3C[C@@H]4C[C@H]3CN4C[C@H]3CC[C@H](n4cc5cc(NC(=O)c6cccc(C(F)(F)F)n6)c(C(C)(C)O)cc5n4)CC3)c21 (some centres unmarked) [I-225] | < 10 |

| Compound | DC50 [nM] |
| --- | --- |
| COc1cc2nn([C@H]3CC[C@H](CN4CCN(C[C@H]5C[C@H](c6cccc7c(N8CCC(=O)NC8=O)cncc76)C5)CC4)CC3)cc2cc1NC(=O)c1cccc(C(F)(F)F)n1 [I-285] | < 10 |
| Cn1c(=O)n(C2CCC(=O)NC2=O)c2cccc(C#CCN3CCN(C[C@H]4CC[C@H](n5cc6cc(NC(=O)c7cccc(C(F)(F)F)n7)c(C(C)(C)O)cc6n5)CC4)CC3)c21 (some centres unmarked) [I-326] | < 10 |
| CC(C)(O)c1cc2nc([C@H]3CC[C@H](C(=O)N4CC5(CC(CCNc6cccc7c6C(=O)N(C6CCC(=O)NC6=O)C7=O)C5)C4)CC3)sc2cc1NC(=O)c1cccc(C#N)n1 (some centres unmarked) [I-436] | 50 to 100 |
| COc1cc2nn([C@H]3CC[C@H](CN4CCC5(CC4)CC(CCNc4cccc6c4C(=O)N(C4CCC(=O)NC4=O)C6=O)C5)CC3)cc2cc1NC(=O)c1cnn2ccc(C(F)(F)F)nc12 (some centres unmarked) [I-15] | > 200 |
| COc1cc2nn([C@H]3CC[C@H](CN4CCCN(c5cccc6c5n(C)c(=O)n6C5CCC(=O)NC5=O)CC4)CC3)cc2cc1NC(=O)c1cncc(C#N)c1 (some centres unmarked) [I-367] | 10 to 50 |
| Cn1c(=O)n(C2CCC(=O)NC2=O)c2ccc(Cl)c(C3CCN(C[C@H]4C[C@H](n5cc6cc(NC(=O)c7cccc(C(F)(F)F)n7)ncc6n5)C4)CC3)c21 (some centres unmarked) [I-149] | 100 to 200 |
| COc1cc2nn([C@H]3CC[C@H](CN4CC=C(c5cccc6c5n(C)c(=O)n6C5CCC(=O)NC5=O)C4)CC3)cc2cc1NC(=O)c1cccc(C(F)(F)F)n1 (some centres unmarked) [I-266] | < 10 |
| COc1cc2nn([C@H]3CC[C@H](CN4C5CCC4CN(c4cccc6c(N7CCC(=O)NC7=O)cncc46)C5)CC3)cc2cc1NC(=O)c1cccc(C(F)(F)F)n1 [I-219] | < 10 |
| Cn1c(=O)n(C2CCC(=O)NC2=O)c2cccc(N3CC4CC(C3)N4C[C@H]3CC[C@@H](n4cc5cc(NC(=O)c6cccc(C(F)(F)F)n6)ccc5n4)CC3)c21 (single isomer, unassigned) [I-156, N-[2-[4-[[3-[1-(2,6-dioxo-3-piperidyl)-3-methyl-2-oxo-benzimidazol-4-yl]-3,6-diazabicyclo[3.1.1]heptan-6-yl]methyl]cyclohexyl]indazol-5-yl]-6-(trifluoromethyl)pyridine-2-carboxamide] | > 200 |
| COc1cc2nn([C@H]3CC[C@H](CN4CCN(c5cccc6c(N7CCC(=O)NC7=O)cncc56)[C@@H](C)C4)CC3)cc2cc1NC(=O)c1cccc(C(F)(F)F)n1 [I-233] | < 10 |
| COc1cc2nn([C@H]3CC[C@H](CN4CCC5(CC4)CCN(c4cccc6c4n(C)c(=O)n6C4CCC(=O)NC4=O)CC5)CC3)cc2cc1NC(=O)c1cncc(C#N)c1 (some centres unmarked) [I-207] | < 10 |
| CN(CCCNc1cccc2c1C(=O)N(C1CCC(=O)NC1=O)C2=O)C[C@H]1CC[C@H](c2nc3cc(C(C)(C)O)c(NC(=O)c4cccc(C(F)(F)F)n4)cc3s2)CC1 (some centres unmarked) [I-490] | > 200 |
| COc1cc2nn([C@H]3CC[C@H](CN4CC[C@H](c5cccc6c5n(C)c(=O)n6C5CCC(=O)NC5=O)CC4(C)C)CC3)cc2cc1NC(=O)c1cccc(C(F)(F)F)n1 (single isomer, unassigned) [I-292] | < 10 |
| Cn1c(=O)n(C2CCC(=O)NC2=O)c2cccc(C3CCN(C[C@H]4CC[C@H](n5cc6cc(NC(=O)c7cnn8cccnc78)c(F)cc6n5)CC4)CC3)c21 (some centres unmarked) [I-63] | < 10 |
| Cc1cccc(C(=O)Nc2cc3sc([C@H]4CC[C@H](CN5C[C@@H]6C[C@H]5CN6CCCNc5cccc6c5C(=O)N(C5CCC(=O)NC5=O)C6=O)CC4)nc3cc2C(C)(C)O)n1 (some centres unmarked) [I-439] | 10 to 50 |
| C[C@@H]1CN(c2cccc3c2n(C)c(=O)n3C2CCC(=O)NC2=O)CCN1C[C@H]1CC[C@H](n2cc3cc(NC(=O)c4cccc(C(F)(F)F)n4)ccc3n2)CC1 (some centres unmarked) [I-163] | < 10 |
| Cn1c(=O)n(C2CCC(=O)NC2=O)c2cccc(N3C[C@@H]4C[C@H]3CN4C[C@H]3CC[C@H](n4cc5cc(NC(=O)c6cccc(C(F)(F)F)n6)ccc5n4)CC3)c21 (some centres unmarked) [I-423] | < 10 |
| COc1cc2nn([C@H]3CC[C@H](CN(C)C4CCN(c5cccc6c5n(C)c(=O)n6C5CCC(=O)NC5=O)CC4)CC3)cc2cc1NC(=O)c1cncc(C(F)(F)F)c1 (some centres unmarked) [I-92] | < 10 |
| C[C@@H]1CN(C[C@H]2CC[C@H](n3cc4cc(NC(=O)c5cccc(C(F)(F)F)n5)c(C(C)(C)O)cc4n3)CC2)CCN1c1cccc2c(N3CCC(=O)NC3=O)cncc12 [I-257] | < 10 |
